Experimental findings from ChEMBL document CHEMBL4823290, “Design and Synthesis of TRAP1 Selective Inhibitors: H-Bonding with Asn171 Residue in TRAP1 Increases Paralog Selectivity” (ACS Med Chem Lett, 2021) are described below.

The species named for assay [1] is Homo sapiens. Nature of the assay: Selectivity index, ratio of IC50 for inhibition of Grap94 (unkown origin) to IC50 for inhibition of TRAP1 (unknown origin).
Assay [2] deals with T1, Heat shock protein 75 kDa, mitochondrial (Homo sapiens, UniProt Q12931).
T1 sequence (Q12931 whole entry): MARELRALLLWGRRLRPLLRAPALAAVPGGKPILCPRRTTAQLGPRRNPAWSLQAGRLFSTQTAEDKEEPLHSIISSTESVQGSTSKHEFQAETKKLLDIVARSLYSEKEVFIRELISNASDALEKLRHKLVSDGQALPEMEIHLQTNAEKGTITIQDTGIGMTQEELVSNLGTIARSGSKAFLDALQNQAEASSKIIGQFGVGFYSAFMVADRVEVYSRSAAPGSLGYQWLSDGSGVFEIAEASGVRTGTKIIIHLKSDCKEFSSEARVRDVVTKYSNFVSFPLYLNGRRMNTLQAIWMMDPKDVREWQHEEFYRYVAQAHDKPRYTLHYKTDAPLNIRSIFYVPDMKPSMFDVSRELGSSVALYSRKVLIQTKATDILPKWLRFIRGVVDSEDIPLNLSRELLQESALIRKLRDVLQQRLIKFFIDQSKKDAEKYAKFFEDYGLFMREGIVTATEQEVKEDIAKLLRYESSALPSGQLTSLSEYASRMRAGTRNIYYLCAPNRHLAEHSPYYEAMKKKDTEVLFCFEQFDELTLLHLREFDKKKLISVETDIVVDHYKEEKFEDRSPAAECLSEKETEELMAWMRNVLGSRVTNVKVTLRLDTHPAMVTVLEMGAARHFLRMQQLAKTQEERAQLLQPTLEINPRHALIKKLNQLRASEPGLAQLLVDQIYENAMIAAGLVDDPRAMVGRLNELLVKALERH
Nature of the assay: Inhibition of PU-H71-FITC3 binding to recombinant full length TRAP1 (unknown origin) incubated for 2 hrs by fluorescence polarization assay.

The species entered for assay [3] is Homo sapiens. Nature of the assay: Selectivity index, ratio of IC50 for inhibition of HSP90alpha (unkown origin) to IC50 for inhibition of TRAP1 (unknown origin).
The target in assay [4] is Heat shock protein HSP 90-alpha (Homo sapiens, UniProt P07900). Nature of the assay: Inhibition of PU-H71-FITC3 binding to recombinant N-terminal HSP90alpha (unknown origin) incubated for 2 hrs by fluorescence polarization assay.
For another assay, the target named is Endoplasmin (Homo sapiens, UniProt P14625). In words: Inhibition of PU-H71-FITC3 binding to recombinant N-terminal Grp94 (unknown origin) incubated for 2 hrs by fluorescence polarization assay.
Endoplasmin, sequence (P14625 whole entry): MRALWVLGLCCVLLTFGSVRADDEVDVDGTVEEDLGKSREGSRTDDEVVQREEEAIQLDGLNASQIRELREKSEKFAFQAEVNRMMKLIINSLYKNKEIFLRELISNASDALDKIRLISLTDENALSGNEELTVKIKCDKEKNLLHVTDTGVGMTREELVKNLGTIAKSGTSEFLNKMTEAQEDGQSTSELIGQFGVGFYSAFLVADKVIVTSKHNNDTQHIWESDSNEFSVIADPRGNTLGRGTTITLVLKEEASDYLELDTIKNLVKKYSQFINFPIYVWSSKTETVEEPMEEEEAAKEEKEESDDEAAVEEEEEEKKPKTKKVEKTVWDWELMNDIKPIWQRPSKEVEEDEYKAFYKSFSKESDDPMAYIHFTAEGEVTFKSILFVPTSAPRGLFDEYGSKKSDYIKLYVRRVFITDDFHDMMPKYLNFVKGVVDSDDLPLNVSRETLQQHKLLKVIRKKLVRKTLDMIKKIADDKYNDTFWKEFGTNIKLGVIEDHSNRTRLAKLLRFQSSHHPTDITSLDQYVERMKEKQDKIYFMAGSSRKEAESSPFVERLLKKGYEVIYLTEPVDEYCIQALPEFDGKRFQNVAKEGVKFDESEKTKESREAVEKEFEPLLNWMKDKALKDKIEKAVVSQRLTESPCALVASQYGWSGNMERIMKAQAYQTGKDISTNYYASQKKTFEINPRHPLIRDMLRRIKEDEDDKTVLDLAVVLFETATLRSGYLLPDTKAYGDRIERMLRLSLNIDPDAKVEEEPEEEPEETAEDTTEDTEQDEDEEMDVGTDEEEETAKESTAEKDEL

Turning to `Cc1ccc(Cn2c(O)nc3c(Cl)nc(N)nc32)c(F)c1`, the Ratio IC50 came out at 5.1 in the assay listed under Homo sapiens [1] and 8.7 in the assay filed under Homo sapiens [3]. Besides, the IC50 in assay [2] was found to be 62.4 nM; in assay [4], 541 nM; on Endoplasmin, 318 nM.

`Nc1nc(Cl)c2nc(O)n(Cc3ccc(F)c(Cl)c3)c2n1`: the Ratio IC50 in the assay listed under Homo sapiens [1] and in the assay filed under Homo sapiens [3] was greater than 6.9 throughout. Also, the IC50 is 728 nM in assay [2], greater than 5000 nM in assay [4] and greater than 5000 nM on Endoplasmin.

Turning to `Nc1nc(Cl)c2nc(S)n(Cc3cc4c(cc3Br)OCO4)c2n1`, the figures for the Ratio IC50 in the assay filed under Homo sapiens [1] and in the assay listed under Homo sapiens [3] were 2.4 and 2.5, respectively. The results for the IC50 (in assay [2]; in assay [4]; on Endoplasmin) were 738 nM, 1860 nM and 1790 nM, respectively.

As to `Nc1nc(Cl)c2nc(N)n(Cc3ccc(Br)cc3F)c2n1`, the Ratio IC50 in the assay filed under Homo sapiens [1] was 7.2; in the assay filed under Homo sapiens [3], greater than 10.5. The values for the IC50 (in assay [2]; in assay [4]; at Endoplasmin) were 477 nM, greater than 5000 nM and 3440 nM, respectively.

Consider `Nc1nc(Cl)c2nc(S)n(Cc3ccc(Br)cc3F)c2n1`, for which the Ratio IC50 in the assay filed under Homo sapiens [1] and in the assay listed under Homo sapiens [3] was greater than 15.1 throughout. The figures for the IC50 (in assay [2]; in assay [4]; at Endoplasmin) were 332 nM, greater than 5000 nM and greater than 5000 nM, respectively.

In the case of `COc1ccc(F)c(CN2C(=O)Cc3c(Cl)nc(N)nc32)c1F`, the Ratio IC50 stood at 2.8 in the assay listed under Homo sapiens [1] and 3.9 in the assay listed under Homo sapiens [3]. In addition, the IC50 in assay [2] was 230 nM; in assay [4], 893 nM; on Endoplasmin, 649 nM.

For the compound `Cc1ccc(CN2C(=O)Cc3c(Cl)nc(N)nc32)c(F)c1`, the Ratio IC50 is 11.8 in the assay listed under Homo sapiens [1] and 13.9 in the assay filed under Homo sapiens [3]. Further, the IC50 in assay [2] was 89.9 nM; in assay [4], 1250 nM; on Endoplasmin it was 1060 nM.

Regarding `Nc1nc(Cl)c2nc(N)n(Cc3cc4c(cc3Br)OCO4)c2n1`, the Ratio IC50 in the assay listed under Homo sapiens [1] worked out at 1.7; in the assay listed under Homo sapiens [3] it was 1.3. Moreover, the IC50 came to 617 nM in assay [2], 778 nM in assay [4] and 1060 nM on Endoplasmin.

Turning to `COc1cc(F)c(Cn2c(O)nc3c(Cl)nc(N)nc32)c(F)c1`, the Ratio IC50 in the assay listed under Homo sapiens [1] and in the assay listed under Homo sapiens [3] was greater than 4.5 each time. Further, the IC50 in assay [2] was 1120 nM; in assay [4], greater than 5000 nM; on Endoplasmin, greater than 5000 nM.

For the compound `Nc1nc(Cl)c2c(n1)N(Cc1cc3c(cc1Br)OCO3)C(=O)C2`, the Ratio IC50 in the assay listed under Homo sapiens [1] was determined as 2.7; in the assay filed under Homo sapiens [3], 3.7. Further, the IC50 is 296 nM in assay [2], 1100 nM in assay [4] and 812 nM at Endoplasmin.

In the case of `Nc1nc(Cl)c2nc(S)n(Cc3cc(C(F)(F)F)ccc3Cl)c2n1`, the Ratio IC50 in the assay listed under Homo sapiens [1] and in the assay filed under Homo sapiens [3] was greater than 4.1 throughout. Also, the IC50 is 1220 nM in assay [2], greater than 5000 nM in assay [4] and greater than 5000 nM on Endoplasmin.

As to `Nc1nc(Cl)c2c(n1)N(Cc1cc(C(F)(F)F)ccc1Cl)C(=O)C2`, the Ratio IC50 in the assay listed under Homo sapiens [1] and in the assay filed under Homo sapiens [3] was greater than 2.8 in each case. Moreover, the IC50 in assay [2] was 1790 nM; in assay [4] it was greater than 5000 nM; on Endoplasmin, greater than 5000 nM.

For `Nc1nc(Cl)c2nc(O)n(Cc3cc(Cl)ccc3F)c2n1`, the Ratio IC50 in the assay listed under Homo sapiens [1] worked out at 13.9; in the assay filed under Homo sapiens [3] it was 18.5. The IC50 in assay [2] turned out to be 243 nM; in assay [4], 4490 nM; on Endoplasmin, 3370 nM.

`Nc1nc(Cl)c2nc(O)n(Cc3cc(C(F)(F)F)ccc3Cl)c2n1`: the Ratio IC50 turned out to be 11 in the assay listed under Homo sapiens [1] and 19.5 in the assay filed under Homo sapiens [3]. The IC50 in assay [2] is 170 nM; in assay [4], 3310 nM; on Endoplasmin, 1870 nM.

In the case of `Nc1nc(Cl)c2nc(S)n(Cc3c(F)ccc(F)c3F)c2n1`, the results for the Ratio IC50 in the assay listed under Homo sapiens [1] and in the assay listed under Homo sapiens [3] were 8.8 and greater than 12.8, respectively. Also, the IC50 in assay [2] is 392 nM; in assay [4], greater than 5000 nM; at Endoplasmin it was 3440 nM.

For the compound `Nc1nc(Cl)c2nc(N)n(Cc3ccc(F)c(Cl)c3)c2n1`, the half-inhibitory concentration (IC50) (in assay [2]; in assay [4]; at Endoplasmin) was greater than 5000 nM each time.
